Source: patent US20100179227A1, “Production method of hop preparation, hop preparation, anti-inflammatory agent, food product and beverage, and oral product” (priority 2006, published 2010)

Experiments:
mRNA of COX-2 gene = assay: Suppression of COX-2 mRNA expression in gingival epithelial cells stimulated with P. gingivalis vesicles (real-time RT-PCR); type: cell-based; conditions: human gingival epithelium-derived immortalized cells stimulated with P. gingivalis-derived vesicles; mRNA measured 24 hours after addition, standardized to GAPDH mRNA
Procedure: The expression levels of mRNA of COX-2 gene were determined.
The P. gingivalis-derived vesicles were prepared as follows: P. gingivalis strain (ATCC 33277) was cultured for 3 days and the cells were removed from the 500 ml culture by centrifugation and filtration. The supernatant was ultracentrifuged at 100,000 G at 4° C. for 1 hour to obtain the desired vesicles. The expression levels of mRNA of COX-2 gene were determined by measuring the amounts of mRNA by real-time RT-PCR 24 hours after addition of each substance. The PCR was performed by using primers specific for the COX-2 gene and amplification was carried out for 45 cycles. The amount of mRNA was standardized to the amount of mRNA of glyceraldehyde-3-phosphate dehydrogenase.
The 80% ethanol fraction obtained in Example 1 was fractionated by reverse-phase HPLC and the resulting fractions corresponding to the respective peaks were collected. As in Example 2, the fractions were incubated with human gingival epithelium-derived immortalized cells stimulated with the vesicles obtained from P. gingivalis (inflammation-inducing agent). The expression levels of mRNA of COX-2 were determined.

[1] = as described in Patent Documents 1, 2 and 5; cited from earlier work
cyclooxygenase-1 (COX-1) = cyclooxygenase-1 (COX-1) (Homo sapiens, UniProt P23219); conditions: according to Non-Patent Document 1; cited from earlier work
cyclooxygenase-1 (COX-1), sequence (P23219 24-599, species assumed): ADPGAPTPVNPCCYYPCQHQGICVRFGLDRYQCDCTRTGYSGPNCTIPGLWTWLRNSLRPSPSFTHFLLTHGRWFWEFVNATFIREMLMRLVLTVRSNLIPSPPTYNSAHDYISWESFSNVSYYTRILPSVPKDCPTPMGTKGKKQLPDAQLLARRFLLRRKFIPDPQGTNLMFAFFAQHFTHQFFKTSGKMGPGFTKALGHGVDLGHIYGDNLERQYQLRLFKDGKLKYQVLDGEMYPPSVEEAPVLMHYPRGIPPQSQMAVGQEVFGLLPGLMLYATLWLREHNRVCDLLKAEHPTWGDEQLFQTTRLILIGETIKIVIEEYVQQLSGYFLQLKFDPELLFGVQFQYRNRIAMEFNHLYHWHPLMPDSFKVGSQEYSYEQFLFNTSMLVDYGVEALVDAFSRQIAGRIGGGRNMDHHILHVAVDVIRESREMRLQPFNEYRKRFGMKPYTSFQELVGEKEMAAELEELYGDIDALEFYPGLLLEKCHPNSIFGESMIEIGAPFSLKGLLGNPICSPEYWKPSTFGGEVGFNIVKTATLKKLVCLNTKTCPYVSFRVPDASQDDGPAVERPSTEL

| Compound | suppression of the expression of mRNA of COX-2 gene (mRNA of COX-2 gene) | anti-inflammatory activity [1] | inhibition of cyclooxygenase-1 (COX-1) (cyclooxygenase-1 (COX-1)) |
| --- | --- | --- | --- |
| O=c1c(O[C@@H]2O[C@H](CO)[C@@H](O)[C@H](O)[C@H]2O)c(-c2ccc(O)cc2)oc2cc(O)cc(O)c12 [astragalin, kaempferol-3-O-β-D-glucopyranoside] | activity | exhibit anti-inflammatory activity |  |
| O=c1c(O[C@@H]2O[C@H](CO)[C@@H](O)[C@H](O)[C@H]2O)c(-c2ccc(O)c(O)c2)oc2cc(O)cc(O)c12 [isoquercitrin, quercetin-3-O-β-D-glucopyranoside] | activity | exhibit anti-inflammatory activity |  |
| CC(C)C(=O)c1c(O)cc(O)cc1O[C@@H]1O[C@H](CO)[C@@H](O)[C@H](O)[C@H]1O [MPPG, 2-[(2-methylpropanyl)-phloroglucinol]-1-O-β-D-glucopyranoside] | activity |  | inhibits cyclooxygenase-1 (COX-1) |
